According to patent publication US7879913B2 (Catholic Healthcare West, priority 2005, dated 2011):
Where two headings read alike, the source gives them in different places.

Columns and labels:
[1] = target: α4β2-nAChR agonist binding sites (Homo sapiens, UniProt P17787+P43681); assay: 3H-epibatidine radioligand binding assay
[2] = target: T1, human α4β2-nAChR (Homo sapiens, UniProt P17787+P43681); assay: whole-cell voltage-clamp currents of heterologously expressed human α4β2-nAChR in SH-EP1 cells; format: cell-based; settings: for reduction of peak current amplitude after initial co-application of nicotine with IPT / peak amplitude of 3 μM nicotine-induced current, % of control / response to nicotine challenge after 15 min of IPT exposure, % of control: 3 μM IPT; for reduction of peak current amplitude after initial co-application of nicotine with IPT: 0 min
T1 construct: expressed in transfected cells; host or cells: SH-EP1 human epithelial cell line (SH-EP1-hα4β2)
From the text: Heterologously expressed, human α4β2-nAChRs in cloned human epithelia cell (SH-EP1 cell line) were employed as a cellular model to test IPT's pharmacology. IPT acts as a potent and selective antagonist of α4-containing nAChR. IPT inhibits both peak and steady-state whole-cell current responses to nicotinic agonists and accelerates acute desensitization in a concentration-dependent manner while having long-lasting effects after washout. Its effects are enhanced by exposure to nAChR prior to agonist challenge.
The whole-cell traces of nicotinic responses with and without IPT are superimposed in the right traces. For these and all subsequent traces, current amplitude and time calibration bars are indicated, the holding potential (vH) was −60 mV unless indicated otherwise, and the duration of ligand exposure is indicated by the bars above the trace.
In this and all following figures, unless specifically mentioned, each column (or symbol) is the average from 4-6 cells tested, and vertical bars indicate±standard error.

[3] = target: human α4β4-nAChR (Homo sapiens, UniProt P30926+P43681); assay: whole-cell current responses of α4β4-nAChR; format: cell-based
Protocol: (§1) FIG. 9 illustrates that IPT-mediated functional block persisted for α4β2- but not α4β4-nAChR after 3 min of drug washout.
(§2) FIG. 9C depicts the IPT concentration (abscissa; log μM scale) dependence of inhibition of function (ordinate; peak whole-cell current responses normalized to those in the absence of IPT; mean±SE, n=6 cells) of human α4β2-(▪), α4β4-(◯), or α7-(▴) nAChR when IPT is co-applied with agonists.

[4] = target: human α7-nAChR (Homo sapiens, UniProt P36544); assay: whole-cell current responses of α7-nAChR to choline; format: cell-based
Protocol: as §1, §2
A double asterisk (**) represents p<0.01.

[5] = target: T2, native α4β2-nAChR (Rattus norvegicus, UniProt P09483+P12390); assay: RJR-2403-induced currents in single dopamine neurons acutely dissociated from rat VTA; format: cell-based; settings: VTA DA neurons; peak and steady-state currents
T2 construct: native expressed α4β2-nAChRs in single dopamine neurons acutely dissociated from rat VTA; from tissue; host or cells: dopamine neurons acutely dissociated from rat ventral tegmental area (VTA)
From the text: FIG. 10 illustrates how typical traces representing four VTA DA neurons responded to α4β2-nAChR selective agonist, RJR-2403 with (FIG. 10B) and without IPT (FIG. 10A). […] Finally, FIG. 10C summarizes the inhibition-efficacy relationship curves of IPT-induced inhibition in peak and steady-state currents.

[6] = system: extracellular dopamine levels in the nucleus accumbens; assay: microdialysis of extracellular dopamine in nucleus accumbens of acute nicotine-administered rats; format: in vivo, rat
From the text: Finally, the effects of IPT on the extracellular dopamine levels in the nucleus accumbens of acute nicotine-administered rats are illustrated by microdialysis.

[7] = 3 μM IPT co-applied with 3 μM nicotine, n=6
[8] = 50 μM IPT, 3 μM nicotine, holding potential 0 mV
[9] = 50 μM IPT, 3 μM nicotine, holding potential −40 mV
[10] = 50 μM IPT, 3 μM nicotine, holding potential −80 mV

Chain of α4β2-nAChR agonist binding sites (P43681 29-627 limits assumed): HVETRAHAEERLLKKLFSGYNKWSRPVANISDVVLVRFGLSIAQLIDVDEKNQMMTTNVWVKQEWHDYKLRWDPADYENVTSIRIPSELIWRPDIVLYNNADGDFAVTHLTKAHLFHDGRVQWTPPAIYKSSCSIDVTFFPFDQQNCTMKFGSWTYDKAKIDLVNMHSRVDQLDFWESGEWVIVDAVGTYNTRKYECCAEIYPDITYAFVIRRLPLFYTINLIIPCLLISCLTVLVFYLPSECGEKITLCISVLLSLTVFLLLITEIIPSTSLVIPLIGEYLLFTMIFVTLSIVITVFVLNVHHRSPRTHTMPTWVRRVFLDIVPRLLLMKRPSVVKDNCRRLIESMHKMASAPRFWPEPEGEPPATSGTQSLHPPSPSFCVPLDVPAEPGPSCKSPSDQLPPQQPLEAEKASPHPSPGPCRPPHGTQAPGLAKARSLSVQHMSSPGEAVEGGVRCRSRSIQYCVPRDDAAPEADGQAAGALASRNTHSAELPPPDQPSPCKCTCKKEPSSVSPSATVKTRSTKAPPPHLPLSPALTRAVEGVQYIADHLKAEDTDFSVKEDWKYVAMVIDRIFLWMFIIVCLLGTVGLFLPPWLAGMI
Chain of α4β2-nAChR agonist binding sites (P17787 26-502): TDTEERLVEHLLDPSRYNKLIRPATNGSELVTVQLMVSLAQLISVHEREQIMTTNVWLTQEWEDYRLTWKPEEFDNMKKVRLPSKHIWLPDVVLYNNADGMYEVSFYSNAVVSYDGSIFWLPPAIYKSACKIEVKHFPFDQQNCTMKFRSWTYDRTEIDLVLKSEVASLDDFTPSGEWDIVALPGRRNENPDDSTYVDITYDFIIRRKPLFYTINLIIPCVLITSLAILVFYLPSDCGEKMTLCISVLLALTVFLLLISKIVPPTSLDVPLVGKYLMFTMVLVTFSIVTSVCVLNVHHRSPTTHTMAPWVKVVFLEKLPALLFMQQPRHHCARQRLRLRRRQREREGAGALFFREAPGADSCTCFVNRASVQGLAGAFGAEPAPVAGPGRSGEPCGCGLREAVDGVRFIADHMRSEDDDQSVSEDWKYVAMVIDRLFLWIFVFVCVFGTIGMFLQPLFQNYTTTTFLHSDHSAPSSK
T1 sequence (P43681 29-627 limits assumed): as the sequence (P43681 29-627 limits assumed) above
T1 sequence (P17787 26-502): as the sequence (P17787 26-502) above
Chain of human α4β4-nAChR (P43681 29-627 limits assumed): as the sequence (P43681 29-627 limits assumed) above
Chain of human α4β4-nAChR (P30926 22-498): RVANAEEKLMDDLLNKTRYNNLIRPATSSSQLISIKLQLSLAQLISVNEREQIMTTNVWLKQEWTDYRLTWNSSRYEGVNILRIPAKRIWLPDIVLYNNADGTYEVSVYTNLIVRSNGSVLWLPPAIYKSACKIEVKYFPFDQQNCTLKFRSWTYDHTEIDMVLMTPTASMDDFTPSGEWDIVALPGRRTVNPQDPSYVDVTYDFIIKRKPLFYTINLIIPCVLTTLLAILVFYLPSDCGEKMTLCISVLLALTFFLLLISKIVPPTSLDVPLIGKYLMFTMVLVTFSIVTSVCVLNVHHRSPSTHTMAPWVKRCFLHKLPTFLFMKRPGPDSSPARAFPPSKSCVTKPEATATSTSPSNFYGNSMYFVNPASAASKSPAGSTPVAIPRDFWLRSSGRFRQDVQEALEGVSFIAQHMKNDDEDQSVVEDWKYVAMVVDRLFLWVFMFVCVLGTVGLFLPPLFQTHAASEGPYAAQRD
Chain of human α7-nAChR (P36544 23-502): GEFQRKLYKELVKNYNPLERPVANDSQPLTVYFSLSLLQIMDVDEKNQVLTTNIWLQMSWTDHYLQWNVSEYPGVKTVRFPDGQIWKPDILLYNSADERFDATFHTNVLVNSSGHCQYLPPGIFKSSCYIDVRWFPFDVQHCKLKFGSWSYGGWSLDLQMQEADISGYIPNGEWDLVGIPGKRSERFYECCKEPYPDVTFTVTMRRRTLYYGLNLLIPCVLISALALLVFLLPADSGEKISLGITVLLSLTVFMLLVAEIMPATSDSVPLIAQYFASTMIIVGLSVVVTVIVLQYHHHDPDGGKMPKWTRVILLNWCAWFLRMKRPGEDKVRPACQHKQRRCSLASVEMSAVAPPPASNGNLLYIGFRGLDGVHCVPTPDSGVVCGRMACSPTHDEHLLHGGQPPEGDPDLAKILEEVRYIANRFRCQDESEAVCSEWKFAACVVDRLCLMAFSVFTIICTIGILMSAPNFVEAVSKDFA
T2 sequence (P09483 31-630): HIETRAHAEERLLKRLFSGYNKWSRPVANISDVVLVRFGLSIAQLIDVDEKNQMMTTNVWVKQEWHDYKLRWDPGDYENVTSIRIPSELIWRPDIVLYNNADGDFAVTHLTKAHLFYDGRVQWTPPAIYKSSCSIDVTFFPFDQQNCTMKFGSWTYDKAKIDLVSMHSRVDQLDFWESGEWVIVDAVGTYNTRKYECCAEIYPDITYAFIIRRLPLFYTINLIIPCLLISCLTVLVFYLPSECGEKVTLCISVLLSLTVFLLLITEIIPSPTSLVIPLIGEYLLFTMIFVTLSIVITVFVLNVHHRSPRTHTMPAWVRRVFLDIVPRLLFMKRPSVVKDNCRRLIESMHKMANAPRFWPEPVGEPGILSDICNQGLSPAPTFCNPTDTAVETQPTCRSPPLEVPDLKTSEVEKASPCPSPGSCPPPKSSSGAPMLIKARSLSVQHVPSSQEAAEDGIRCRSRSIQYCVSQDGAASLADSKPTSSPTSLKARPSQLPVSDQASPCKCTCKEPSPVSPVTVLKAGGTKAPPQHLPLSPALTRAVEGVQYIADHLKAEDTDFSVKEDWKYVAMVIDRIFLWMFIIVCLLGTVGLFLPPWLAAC
T2 sequence (P12390 25-500): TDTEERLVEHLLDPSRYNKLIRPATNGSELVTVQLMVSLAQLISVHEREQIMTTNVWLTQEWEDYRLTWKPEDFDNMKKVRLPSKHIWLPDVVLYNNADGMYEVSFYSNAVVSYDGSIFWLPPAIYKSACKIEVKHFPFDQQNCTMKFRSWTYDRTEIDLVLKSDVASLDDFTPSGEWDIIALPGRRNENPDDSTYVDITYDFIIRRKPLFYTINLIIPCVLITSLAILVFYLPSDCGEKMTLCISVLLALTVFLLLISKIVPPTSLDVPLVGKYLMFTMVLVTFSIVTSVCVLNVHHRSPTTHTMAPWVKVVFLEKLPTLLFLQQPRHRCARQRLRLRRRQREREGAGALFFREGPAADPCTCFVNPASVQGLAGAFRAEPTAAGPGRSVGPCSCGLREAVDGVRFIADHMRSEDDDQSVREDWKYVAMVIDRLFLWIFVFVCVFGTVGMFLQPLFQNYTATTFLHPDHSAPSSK

`CNC1(C)C2CCC(C2)C1(C)C` (stereo not drawn) [mecamylamine] was tested, and the “block of 3H-epibatidine binding” value ([1]; concentrations up to 1 mM) was “failed to block radioligand binding”.
`CC(C)NC(C)(C)C(C)C.Cl` [IPT, iptakalim hydrochloride] was tested, and the “reduction of peak whole-cell current (Ip)” value ([2]; 3 μM IPT co-applied with 3 μM nicotine, VH −60 mV, n=6) was 20.85±2.69%, the “acceleration of rate of decay from peak to steady-state current” value [2, 7] was 21.38±3.40% and the “reduction of ratio of steady-state to peak current (Is/Ip)” value [2, 7] was 68.62±2.23%. The “reduction of peak current amplitude after initial co-application of nicotine with IPT” value ([2]; 3 μM nicotine, nicotine at start and end only (second value)) was 13.6±2.4%, the “reduction of peak current amplitude after initial co-application of nicotine with IPT” value ([2]; 3 μM nicotine, repetitive nicotine challenge protocol (first value)) was 16.8±6.1% and the “peak amplitude of 3 μM nicotine-induced current, % of control” value (“peak amplitude … % of control” below) ([2]; 3 min pre-treatment ending before exposure to nicotine alone) was 81±7 % of control. The “peak amplitude … % of control” value ([2]; 3 min pre-treatment followed by continued co-application) was 62±4 % of control, the “response to nicotine challenge after 15 min of IPT exposure, % of control” value ([2]; after repeated nicotine challenges (4 sec at 3 min intervals)) was 11.9±1.7 % of control and the “peak amplitude … % of control” value ([2]; co-application with nicotine without pre-treatment) was 79±9 % of control. The “response to nicotine challenge after 15 min of IPT exposure, % of control” value ([2]; without repeated nicotine challenges) was 29.8±3.3 % of control, the “inhibition of α4β2-nAChR-mediated currents” value ([2]; 10 μM IPT, 3 min pre-treatment then co-application, 3 μM nicotine) was 70±11% and the “current decay constant, % of control” value [2, 8] was 44±7.6 % of control. For the same molecule, the “fractional inhibition of whole-cell peak current responses to nicotine” value (“fractional inhibition” for short) [2, 8] was 68.9±3.5%, the “current decay constant, % of control” value [2, 9] was 30±1.1 % of control and the “fractional inhibition” value [2, 9] was 76.4±2.6%. For the same molecule, the “current decay constant, % of control” value [2, 10] was 22±3.4 % of control, the “fractional inhibition” value [2, 10] was 80.9±2.65% and the “persistence of functional block after 3 min of drug washout” value ([2]; 50 μM IPT, 3 μM nicotine) was “persisted”. For the same molecule, the “block of peak whole-cell currents” value ([2]; 50 μM IPT, agonist ACh 10 μM) was 65.81±1.49%, the “block of peak whole-cell currents” value ([2]; 50 μM IPT, agonist RJR-2403 3 μM) was 72.72±1.98% and the “block of responses to cytisine” value ([2]; 50 μM IPT, agonist cytisine 100 μM (maximally efficacious, partial agonist)) was 49.32±3.46%. For the same molecule, the “block of peak whole-cell currents” value ([2]; 50 μM IPT, agonist nicotine 3 μM) was 76.37±2.56%, the IC50 ([2]; co-application condition, 3 μM nicotine, n=6, read-out: IC50 for inhibition of whole-cell steady-state current) was 1 µM and the IC50 ([2]; co-application with agonist, without pretreatment, 3 μM nicotine, read-out: IC50 for inhibition of peak whole-cell responses) was 31 µM. The “half-time for recovery of peak current response to nicotine challenge” value ([2]; washout after 4 sec exposure to 50 μM IPT, 3 μM nicotine) was roughly 15 min, the IC50 ([2]; with 3 min pretreatment with IPT, 3 μM nicotine, read-out: IC50 for inhibition of peak whole-cell responses) was 5 µM and the “persistence of functional block after 3 min of drug washout” value ([3]; 50 μM IPT, 1 μM nicotine) was “not”. For the same molecule, the IC50 ([3]; co-application with agonist (1 μM nicotine), peak current, read-out: IC50 for functional inhibition) was 23 µM, the “inhibition of α7-nAChR-mediated currents” value ([4]; 10 μM IPT, 3 min pre-treatment then co-application, 1 mM choline) was 3.5±0.4% and the IC50 ([4]; co-application with agonist (choline), peak current, read-out: IC50 for α7-nAChR blockade) was greater than 1000 µM. For the same molecule, the “block of 3H-epibatidine binding” value ([1]; concentrations up to 1 mM) was “failed to block radioligand binding”, the “effect on RJR-2403-induced current response” value [5] was “inhibited RJR-2403-induced current response in a concentration-dependent manner” and the “effect on nicotine-induced elevation of dopamine in the nucleus accumbens” value ([6]; local perfusion with IPT 1-100 μM from microdialysis probe after s.c. nicotine 0.5 mg/kg, significant 20-80 minutes after nicotine) was “tended to decrease nicotine-induced elevation of dopamine”.
`CN1CCCC1c1cccnc1` (stereo not drawn) [nicotine, reference compound] was tested, and the “block of 3H-epibatidine binding” value ([1]; with previously reported IC50 values) was “blocked” and the “increase in dopamine levels versus final sample prior to nicotine administration” value ([6]; subcutaneous nicotine 0.5 mg/kg, control group) was 100%.
